According to patent US12599136B2, “Substituted isophthalic acid diamides and their use as herbicides” (Bayer Aktiengesellschaft, priority 2020, dated 2026):

Columns and labels:
Format in all cases: in vivo
Abutilon theophrasti [1] = test: Pre-emergence herbicidal action against ABUTH; conditions: visual score after 3 weeks vs untreated controls
Outline: (§1)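 Sandy loam pots, seeds covered with soil, then surface-treated with WP or EC formulations at 600–800 l/ha water plus 0.2% wetting agent. Greenhouse, 3 weeks. Percent damage vs untreated controls.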

Alopecurus myosuroides [2] = test: Pre-emergence herbicidal action against ALOMY; conditions: visual score after 3 weeks vs untreated controls
Outline: as §1

Amaranthus retroflexus [3] = test: Pre-emergence herbicidal action against AMARE; conditions: visual score after 3 weeks vs untreated controls
Outline: as §1

Echinochloa crus-galli [4] = test: Pre-emergence herbicidal action against ECHCG; conditions: visual score after 3 weeks vs untreated controls
Outline: as §1

Matricaria inodora [5] = test: Pre-emergence herbicidal action against MATIN; conditions: visual score after 3 weeks vs untreated controls
Outline: as §1

Pharbitis purpurea [6] = test: Pre-emergence herbicidal action against PHBPU; conditions: visual score after 3 weeks vs untreated controls
From the text: (§2) Seeds of monocotyledonous and dicotyledonous weed plants and crop plants are laid out in sandy loam soil in wood-fiber pots and covered with soil. The compounds of the invention, formulated in the form of wettable powders (WP) or as emulsion concentrates (EC), are then applied to the surface of the covering soil in the form of an aqueous suspension or emulsion at a water application rate equivalent to 600 to 800 l/ha, with addition of 0.2% wetting agent. After the treatment, the pots are placed in a greenhouse and kept under good growth conditions for the trial plants. The damage to the test plants is scored visually after a test period of 3 weeks by comparison with untreated controls (herbicidal activity in percent (%): 100% activity=the plants have died, 0% activity=like control plants). […] The tables below illustrate, in an illustrative manner, the post-emergence herbicidal action of the compounds of the invention, the herbicidal activity being stated in percent.

Digitaria sanguinalis [7] = test: Pre-emergence herbicidal action against DIGSA
Outline: as §1

Setaria viridis [8] = test: Pre-emergence herbicidal action against SETVI
Outline: as §1

Veronica persica = test: Pre-emergence herbicidal action against VERPE
Outline: as §1

Viola tricolor [9] = test: Pre-emergence herbicidal action against VIOTR
Outline: as §1

Alopecurus myosuroides [10] = test: Post-emergence herbicidal action against ALOMY
Outline: (§3)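 Visual % rating (0% = as untreated, 100% = dead) ~3 wk after spraying one-leaf-stage plants grown in sandy loam; WP/EC in water at 600–800 l/ha, 0.2% wetting agent.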

Amaranthus retroflexus [11] = test: Post-emergence herbicidal action against AMARE; conditions: visual assessment about 3 weeks after treatment
Outline: as §3

Avena fatua [12] = test: Post-emergence herbicidal action against AVEFA; conditions: visual assessment about 3 weeks after treatment
Outline: as §3

Echinochloa crus-galli [13] = test: Post-emergence herbicidal action against ECHCG; conditions: visual assessment about 3 weeks after treatment
Outline: as §3

Matricaria inodora [14] = test: Post-emergence herbicidal action against MATIN; conditions: visual assessment about 3 weeks after treatment
Outline: as §3

Digitaria sanguinalis [15] = test: Post-emergence herbicidal action against DIGSA
Outline: as §3

Polygonum convolvulus = test: Post-emergence herbicidal action against POLCO; conditions: 20 g/ha, visual assessment about 3 weeks after treatment
Protocol: (§4) Seeds of monocotyledonous and dicotyledonous weed and crop plants are laid out in sandy loam soil in wood-fiber pots, covered with soil and cultivated in a greenhouse under good growth conditions. 2 to 3 weeks after sowing, the test plants are treated at the one-leaf stage. The compounds of the invention, formulated in the form of wettable powders (WP) or as emulsion concentrates (EC), are then sprayed onto the green parts of the plants in the form of an aqueous suspension or emulsion at a water application rate equivalent to 600 to 800 l/ha, with addition of 0.2% wetting agent. After the test plants have been left to stand in the greenhouse under optimal growth conditions for about 3 weeks, the action of the preparations is assessed visually in comparison to untreated controls (herbicidal action in percent (%): 100% activity=the plants have died, 0% activity=like control plants). […] The tables below illustrate, in an illustrative manner, the post-emergence herbicidal action of the compounds of the invention, the herbicidal activity being stated in percent.

Setaria viridis [16] = test: Post-emergence herbicidal action against SETVI; conditions: visual assessment about 3 weeks after treatment
Outline: as §3

Viola tricolor [17] = test: Post-emergence herbicidal action against VIOTR
Outline: as §3

Avena fatua [18] = test: Pre-emergence herbicidal action against AVEFA; conditions: visual score after 3 weeks vs untreated controls
Outline: as §1

Cyperus esculentus = test: Pre-emergence herbicidal action against CYPES; conditions: visual score after 3 weeks vs untreated controls
Outline: as §1

Hordeum murinum [19] = test: Pre-emergence herbicidal action against HORMU; conditions: visual score after 3 weeks vs untreated controls
From the text: as §2

Lolium rigidum = test: Pre-emergence herbicidal action against LOLRI; conditions: 320 g/ha
Outline: as §1

Stellaria media [20] = test: Pre-emergence herbicidal action against STEME
Outline: as §1

Abutilon theophrasti [21] = test: Post-emergence herbicidal action against ABUTH
Outline: as §3

Pharbitis purpurea [22] = test: Post-emergence herbicidal action against PHBPU; conditions: visual assessment about 3 weeks after treatment
Outline: as §3

Hordeum murinum [23] = test: Post-emergence herbicidal action against HORMU
Protocol: as §4

Stellaria media [24] = test: Post-emergence herbicidal action against STEME; conditions: visual assessment about 3 weeks after treatment
Outline: as §3

## CCN(C(=O)c1c(C(F)(F)F)ccc(C(=O)Nc2nnnn2CC)c1C)C1CC1 [Example 2-32]
Abutilon theophrasti [1]; 20 g/ha
  Pre-emergence action against ABUTH: 100%
Abutilon theophrasti [1]; 80 g/ha
  Pre-emergence action against ABUTH: 100%
Alopecurus myosuroides [2]; 80 g/ha
  Pre-emergence action against ALOMY: 90%
Amaranthus retroflexus [3]; 20 g/ha
  Pre-emergence action against AMARE: 100%
Amaranthus retroflexus [3]; 80 g/ha
  Pre-emergence action against AMARE: 100%
Echinochloa crus-galli [4]; 80 g/ha
  Pre-emergence action against ECHCG: 90%
Matricaria inodora [5]; 20 g/ha
  Pre-emergence action against MATIN: 80%
Matricaria inodora [5]; 80 g/ha
  Pre-emergence action against MATIN: 100%
Pharbitis purpurea [6]; 80 g/ha
  Pre-emergence action against PHBPU: 80%
Digitaria sanguinalis [7]; 20 g/ha
  Pre-emergence action against DIGSA: 100%
Digitaria sanguinalis [7]; 80 g/ha
  Pre-emergence action against DIGSA: 100%
Setaria viridis [8]; 80 g/ha
  Pre-emergence action against SETVI: 100%
Veronica persica; 20 g/ha
  Pre-emergence action against VERPE: 90%
Veronica persica; 80 g/ha
  Pre-emergence action against VERPE: 90%
Viola tricolor [9]; 20 g/ha
  Pre-emergence action against VIOTR: 90%
Viola tricolor [9]; 80 g/ha
  Pre-emergence action against VIOTR: 100%
Alopecurus myosuroides [10]; 5 g/ha
  Post-emergence action against ALOMY: 80%
Alopecurus myosuroides [10]; 20 g/ha
  Post-emergence action against ALOMY: 100%
Amaranthus retroflexus [11]; 5 g/ha
  Post-emergence action against AMARE in %: 100%
Amaranthus retroflexus [11]; 20 g/ha
  Post-emergence action against AMARE in %: 100%
Avena fatua [12]; 20 g/ha
  Post-emergence action against AVEFA in %: 80%
Echinochloa crus-galli [13]; 5 g/ha
  Post-emergence action against ECHCG in %: 90%
Echinochloa crus-galli [13]; 20 g/ha
  Post-emergence action against ECHCG in %: 90%
Matricaria inodora [14]; 5 g/ha
  Post-emergence action against MATIN in %: 80%
Matricaria inodora [14]; 20 g/ha
  Post-emergence action against MATIN in %: 90%
Digitaria sanguinalis [15]; 5 g/ha
  Post-emergence action against DIGSA in %: 90%
Digitaria sanguinalis [15]; 20 g/ha
  Post-emergence action against DIGSA in %: 90%
Polygonum convolvulus
  Post-emergence action against POLCO in %: 80%
Setaria viridis [16]; 20 g/ha
  Post-emergence action against SETVI in %: 90%
Viola tricolor [17]; 5 g/ha
  Post-emergence action against VIOTR in %: 80%
Viola tricolor [17]; 20 g/ha
  Post-emergence action against VIOTR in %: 90%

## CCCn1nnnc1NC(=O)c1ccc(C(F)(F)F)c(C(=O)N(C)C)c1Cl [Example 3-123]
Abutilon theophrasti [1]; 80 g/ha
  Pre-emergence action against ABUTH: 100%
Abutilon theophrasti [1]; Dosage column 320 g/ha (heading prints 3200 g/ha)
  Pre-emergence action against ABUTH: 100%
Alopecurus myosuroides [2]; 80 g/ha
  Pre-emergence action against ALOMY: 80%
Alopecurus myosuroides [2]; 320 g/ha
  Pre-emergence action against ALOMY: 90%
Amaranthus retroflexus [3]; 20 g/ha
  Pre-emergence action against AMARE: 100%
Amaranthus retroflexus [3]; 80 g/ha
  Pre-emergence action against AMARE: 100%
Amaranthus retroflexus [3]; 320 g/ha
  Pre-emergence action against AMARE: 100%
Avena fatua [18]; 80 g/ha
  Pre-emergence action against AVEFA: 80%
Avena fatua [18]; 320 g/ha
  Pre-emergence action against AVEFA: 100%
Cyperus esculentus; 80 g/ha
  Pre-emergence action against CYPES: 80%
Cyperus esculentus; 320 g/ha
  Pre-emergence action against CYPES: 90%
Echinochloa crus-galli [4]; 80 g/ha
  Pre-emergence action against ECHCG: 80%
Echinochloa crus-galli [4]; 320 g/ha
  Pre-emergence action against ECHCG: 100%
Matricaria inodora [5]; 20 g/ha
  Pre-emergence action against MATIN: 80%
Matricaria inodora [5]; 80 g/ha
  Pre-emergence action against MATIN: 90%
Matricaria inodora [5]; 320 g/ha
  Pre-emergence action against MATIN: 100%
Pharbitis purpurea [6]; 320 g/ha
  Pre-emergence action against PHBPU: 90%
Hordeum murinum [19]; 80 g/ha
  Pre-emergence action against HORMU: 80%
Hordeum murinum [19]; 320 g/ha
  Pre-emergence action against HORMU: 100%
Lolium rigidum
  Pre-emergence action against LOLRI: 80%
Setaria viridis [8]; 80 g/ha
  Pre-emergence action against SETVI: 100%
Setaria viridis [8]; 320 g/ha
  Pre-emergence action against SETVI: 100%
Stellaria media [20]; 20 g/ha
  Pre-emergence action against STEME: 90%
Stellaria media [20]; 80 g/ha
  Pre-emergence action against STEME: 100%
Stellaria media [20]; 320 g/ha
  Pre-emergence action against STEME: 100%
Veronica persica; 320 g/ha
  Pre-emergence action against VERPE: 90%
Viola tricolor [9]; 80 g/ha
  Pre-emergence action against VIOTR: 80%
Viola tricolor [9]; 320 g/ha
  Pre-emergence action against VIOTR: 100%
Abutilon theophrasti [21]; 5 g/ha
  Post-emergence action against ABUTH: 100%
Abutilon theophrasti [21]; 20 g/ha
  Post-emergence action against ABUTH: 100%
Abutilon theophrasti [21]; 80 g/ha
  Post-emergence action against ABUTH: 100%
Alopecurus myosuroides [10]; 20 g/ha
  Post-emergence action against ALOMY: 80%
Alopecurus myosuroides [10]; 80 g/ha
  Post-emergence action against ALOMY: 100%
Amaranthus retroflexus [11]; 5 g/ha
  Post-emergence action against AMARE in %: 100%
Amaranthus retroflexus [11]; 20 g/ha
  Post-emergence action against AMARE in %: 100%
Amaranthus retroflexus [11]; 80 g/ha
  Post-emergence action against AMARE in %: 100%
Avena fatua [12]; 5 g/ha
  Post-emergence action against AVEFA in %: 80%
Avena fatua [12]; 20 g/ha
  Post-emergence action against AVEFA in %: 100%
Avena fatua [12]; 80 g/ha
  Post-emergence action against AVEFA in %: 100%
Echinochloa crus-galli [13]; 5 g/ha
  Post-emergence action against ECHCG in %: 90%
Echinochloa crus-galli [13]; 20 g/ha
  Post-emergence action against ECHCG in %: 100%
Echinochloa crus-galli [13]; 80 g/ha
  Post-emergence action against ECHCG in %: 100%
Matricaria inodora [14]; 5 g/ha
  Post-emergence action against MATIN in %: 90%
Matricaria inodora [14]; 20 g/ha
  Post-emergence action against MATIN in %: 100%
Matricaria inodora [14]; 80 g/ha
  Post-emergence action against MATIN in %: 100%
Pharbitis purpurea [22]; 5 g/ha
  Post-emergence action against PHBPU in %: 80%
Pharbitis purpurea [22]; 20 g/ha
  Post-emergence action against PHBPU in %: 90%
Pharbitis purpurea [22]; 80 g/ha
  Post-emergence action against PHBPU in %: 90%
Hordeum murinum [23]; 20 g/ha
  Post-emergence action against HORMU in %: 90%
Hordeum murinum [23]; 80 g/ha
  Post-emergence action against HORMU in %: 100%
Setaria viridis [16]; 5 g/ha
  Post-emergence action against SETVI in %: 100%
Setaria viridis [16]; 20 g/ha
  Post-emergence action against SETVI in %: 100%
Setaria viridis [16]; 80 g/ha
  Post-emergence action against SETVI in %: 100%
Stellaria media [24]; 5 g/ha
  Post-emergence action against STEME in %: 90%
Stellaria media [24]; 20 g/ha
  Post-emergence action against STEME in %: 100%
Stellaria media [24]; 80 g/ha
  Post-emergence action against STEME in %: 100%
Viola tricolor [17]; 5 g/ha
  Post-emergence action against VIOTR in %: 90%
Viola tricolor [17]; 20 g/ha
  Post-emergence action against VIOTR in %: 100%
Viola tricolor [17]; 80 g/ha
  Post-emergence action against VIOTR in %: 100%
